PMC5761851, “Application of a phenotypic drug discovery strategy to identify biological and chemical starting points for inhibition of TSLP production in lung epithelial cells” (PLoS ONE, 2018)

Columns and labels:
Test in all cases: kinase selectivity panel
Type in all cases: biochemical
[1] = biological target: T1, GSK3α (Homo sapiens, UniProt P49840); conditions: read-out: percentage of control activity (POC), GSK3α
T1 construct: purchased Eurofins Pharma Discovery Services (KinaseProfiler; Cerep BioPrint panel)
T1 sequence (P49840 whole entry): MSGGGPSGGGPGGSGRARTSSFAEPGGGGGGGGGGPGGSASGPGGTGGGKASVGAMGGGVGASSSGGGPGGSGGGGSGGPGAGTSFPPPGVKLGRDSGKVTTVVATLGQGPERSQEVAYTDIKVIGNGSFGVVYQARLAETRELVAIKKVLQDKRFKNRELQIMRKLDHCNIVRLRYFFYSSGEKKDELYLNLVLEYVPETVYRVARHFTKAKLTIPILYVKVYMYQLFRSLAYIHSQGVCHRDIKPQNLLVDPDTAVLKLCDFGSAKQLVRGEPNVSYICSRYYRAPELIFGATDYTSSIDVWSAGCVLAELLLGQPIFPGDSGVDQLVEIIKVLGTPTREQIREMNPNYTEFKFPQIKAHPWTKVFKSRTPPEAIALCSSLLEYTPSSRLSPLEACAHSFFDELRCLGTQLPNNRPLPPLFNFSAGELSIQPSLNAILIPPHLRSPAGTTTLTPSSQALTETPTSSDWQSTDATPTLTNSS
Protocol: (§1) Kinase selectivity was evaluated at Eurofins Pharma Discovery Services using a selection of 125 representative kinases tested at a concentration of 10 μM in duplicate (S3 Table). IC50 values for selected activities were further characterized at 9 duplicate concentrations. DNA-PK activity was determined at the SelectScreen® Biochemical kinase Profiling Service of Thermo Fisher Scientific.

[2] = biological target: T2, ASK1 (Homo sapiens, UniProt Q99683); conditions: read-out: percentage of control activity (POC), ASK1
T2 construct: purchased Eurofins Pharma Discovery Services (KinaseProfiler; Cerep BioPrint panel)
T2 sequence (Q99683 1-1374): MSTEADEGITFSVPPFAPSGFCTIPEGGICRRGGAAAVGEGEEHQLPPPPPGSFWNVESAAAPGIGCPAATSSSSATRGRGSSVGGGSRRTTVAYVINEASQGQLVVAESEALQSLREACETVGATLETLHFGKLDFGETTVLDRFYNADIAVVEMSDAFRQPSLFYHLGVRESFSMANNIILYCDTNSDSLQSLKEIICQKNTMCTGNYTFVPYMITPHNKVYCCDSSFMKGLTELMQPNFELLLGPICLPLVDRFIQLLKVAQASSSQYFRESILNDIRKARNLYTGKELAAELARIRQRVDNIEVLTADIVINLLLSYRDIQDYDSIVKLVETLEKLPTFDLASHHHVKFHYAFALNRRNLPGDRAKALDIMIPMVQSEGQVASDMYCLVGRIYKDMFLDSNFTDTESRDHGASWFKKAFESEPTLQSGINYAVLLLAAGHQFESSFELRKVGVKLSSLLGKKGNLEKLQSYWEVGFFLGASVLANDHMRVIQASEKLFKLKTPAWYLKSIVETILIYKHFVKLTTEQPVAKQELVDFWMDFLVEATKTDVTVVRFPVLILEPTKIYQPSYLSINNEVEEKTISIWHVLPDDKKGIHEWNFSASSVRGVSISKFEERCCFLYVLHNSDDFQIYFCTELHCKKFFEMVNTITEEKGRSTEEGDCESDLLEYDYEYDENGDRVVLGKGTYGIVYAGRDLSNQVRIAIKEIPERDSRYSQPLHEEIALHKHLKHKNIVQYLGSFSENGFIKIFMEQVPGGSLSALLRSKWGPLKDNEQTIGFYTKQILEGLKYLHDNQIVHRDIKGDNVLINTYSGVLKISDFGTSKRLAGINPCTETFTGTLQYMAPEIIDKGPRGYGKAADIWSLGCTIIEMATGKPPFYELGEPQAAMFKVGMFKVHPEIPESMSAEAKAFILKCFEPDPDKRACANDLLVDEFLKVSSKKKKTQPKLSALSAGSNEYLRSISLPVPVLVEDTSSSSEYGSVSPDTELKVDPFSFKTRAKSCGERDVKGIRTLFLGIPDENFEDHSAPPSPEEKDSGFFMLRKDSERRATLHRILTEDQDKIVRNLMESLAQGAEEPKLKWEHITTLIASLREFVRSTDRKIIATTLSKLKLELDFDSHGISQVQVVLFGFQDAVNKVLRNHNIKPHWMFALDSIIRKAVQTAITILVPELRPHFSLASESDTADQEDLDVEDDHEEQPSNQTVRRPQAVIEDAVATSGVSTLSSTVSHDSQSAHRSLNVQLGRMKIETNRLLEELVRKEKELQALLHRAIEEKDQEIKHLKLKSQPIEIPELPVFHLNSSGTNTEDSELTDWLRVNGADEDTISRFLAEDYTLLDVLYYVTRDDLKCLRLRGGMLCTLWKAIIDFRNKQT
Protocol: as §1

[3] = biological target: T3, PKA (Homo sapiens, UniProt P17612); conditions: read-out: percentage of control activity (POC), PKA
T3 construct: purchased Eurofins Pharma Discovery Services (KinaseProfiler; Cerep BioPrint panel)
Protocol: as §1

[4] = biological target: T4, IKKε (Homo sapiens, UniProt Q14164); conditions: read-out: percentage of control activity (POC), IKKε
T4 construct: purchased Eurofins Pharma Discovery Services (KinaseProfiler; Cerep BioPrint panel)
T4 sequence (Q14164 1-716): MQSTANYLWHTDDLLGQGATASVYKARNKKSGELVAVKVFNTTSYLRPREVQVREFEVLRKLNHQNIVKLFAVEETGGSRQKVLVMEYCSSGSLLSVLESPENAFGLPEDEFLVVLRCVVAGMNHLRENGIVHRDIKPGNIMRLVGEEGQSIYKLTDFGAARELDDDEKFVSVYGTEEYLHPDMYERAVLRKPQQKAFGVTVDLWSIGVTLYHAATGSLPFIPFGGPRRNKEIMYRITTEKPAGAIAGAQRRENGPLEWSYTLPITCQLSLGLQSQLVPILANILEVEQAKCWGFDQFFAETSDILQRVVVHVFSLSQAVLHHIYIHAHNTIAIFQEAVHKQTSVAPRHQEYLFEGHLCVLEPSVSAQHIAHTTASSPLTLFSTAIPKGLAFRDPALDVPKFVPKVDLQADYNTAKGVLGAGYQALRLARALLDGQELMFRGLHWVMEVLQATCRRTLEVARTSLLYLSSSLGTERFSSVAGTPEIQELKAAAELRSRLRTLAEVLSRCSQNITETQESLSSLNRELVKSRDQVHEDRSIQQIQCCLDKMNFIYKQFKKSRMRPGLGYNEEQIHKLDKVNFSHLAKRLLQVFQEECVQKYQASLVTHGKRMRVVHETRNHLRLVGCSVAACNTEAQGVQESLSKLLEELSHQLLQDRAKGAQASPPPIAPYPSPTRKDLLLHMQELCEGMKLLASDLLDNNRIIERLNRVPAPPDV
Protocol: as §1

[5] = biological target: T5, Aurora-A (Homo sapiens, UniProt O14965); conditions: read-out: percentage of control activity (POC), Aurora-A
T5 construct: purchased Eurofins Pharma Discovery Services (KinaseProfiler; Cerep BioPrint panel)
T5 sequence (O14965 1-403): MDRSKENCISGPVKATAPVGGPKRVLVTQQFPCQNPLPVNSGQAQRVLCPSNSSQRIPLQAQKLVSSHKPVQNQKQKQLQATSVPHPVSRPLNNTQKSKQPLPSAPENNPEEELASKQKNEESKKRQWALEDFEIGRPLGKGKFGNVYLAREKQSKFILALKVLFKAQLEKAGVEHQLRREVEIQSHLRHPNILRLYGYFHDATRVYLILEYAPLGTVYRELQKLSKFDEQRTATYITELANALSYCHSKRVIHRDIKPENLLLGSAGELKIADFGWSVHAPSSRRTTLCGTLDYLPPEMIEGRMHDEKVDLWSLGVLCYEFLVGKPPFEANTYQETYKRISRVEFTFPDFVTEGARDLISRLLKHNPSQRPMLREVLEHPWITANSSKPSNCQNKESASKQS
Protocol: as §1

[6] = biological target: T6, PAK2 (Homo sapiens, UniProt Q13177); conditions: read-out: percentage of control activity (POC), PAK2
T6 construct: purchased Eurofins Pharma Discovery Services (KinaseProfiler; Cerep BioPrint panel)
T6 sequence (Q13177 whole entry): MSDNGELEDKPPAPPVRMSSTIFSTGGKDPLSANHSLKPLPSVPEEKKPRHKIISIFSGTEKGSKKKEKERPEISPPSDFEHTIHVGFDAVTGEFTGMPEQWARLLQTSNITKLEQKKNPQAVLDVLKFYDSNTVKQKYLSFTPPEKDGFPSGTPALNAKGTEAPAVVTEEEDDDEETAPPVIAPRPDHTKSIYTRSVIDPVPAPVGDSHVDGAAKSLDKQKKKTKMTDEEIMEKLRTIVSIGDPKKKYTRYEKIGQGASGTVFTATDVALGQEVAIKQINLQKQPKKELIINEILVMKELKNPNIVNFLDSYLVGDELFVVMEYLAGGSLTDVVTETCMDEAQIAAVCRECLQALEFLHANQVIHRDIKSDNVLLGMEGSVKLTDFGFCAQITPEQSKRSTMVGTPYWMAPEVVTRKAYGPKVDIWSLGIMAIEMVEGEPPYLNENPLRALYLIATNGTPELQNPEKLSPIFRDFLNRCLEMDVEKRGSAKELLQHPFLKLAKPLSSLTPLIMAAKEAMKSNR
Protocol: as §1

| remaining activity at 10 µM [1] [%] | remaining activity at 10 µM [2] [%] | remaining activity at 10 µM [3] [%] | remaining activity at 10 µM [4] [%] | remaining activity at 10 µM [5] [%] | remaining activity at 10 µM [6] [%] | Compound |
| --- | --- | --- | --- | --- | --- | --- |
| 107 | 100 | 109 | 101 | 112 | 111 | CC(C)(C)N1CCC(c2cc(-c3ccc(F)cc3Cl)c3cc[n+]([O-])c(-c4c(Cl)cccc4Cl)c3n2)CC1 [compound 2] |
| 95 | 97 | 99 | 102 | 96 | 89 | Cc1ccc(C(=O)NCC2CC2)cc1-c1ccc2c(c1)NC(=O)C21CCCC1 [compound 3] |
| 103 | 87 | 109 | 100 | 110 | 96 | COc1c(NC(=O)c2ccc(C)c(-c3nnc4c(NCC(C)(C)C)nccn34)c2)cc(C(C)(C)C)cc1NS(C)(=O)=O [compound 7, reference compound] |

Further lines, the molecule ahead of its results:

| Compound | remaining activity at 10 µM [1] [%] | remaining activity at 10 µM [2] [%] | remaining activity at 10 µM [3] [%] | remaining activity at 10 µM [4] [%] | remaining activity at 10 µM [5] [%] | remaining activity at 10 µM [6] [%] |
| --- | --- | --- | --- | --- | --- | --- |
| Cn1cc(-c2cccc(-c3nc(C(=O)NC4C5CC6CC4CC(O)(C6)C5)c(N)nc3N)c2)cn1 (stereo not drawn) [compound 4] | 76 | 92 | 100 | 96 | 89 | 87 |
| CS(=O)(=O)N1CCN(c2ccc(Nc3ncc(C(N)=O)c(NC4CC4)n3)cc2)CC1 [compound 5] | 40 | 0 | 26 | 0 | 2 | 24 |
